Source: PMC11157767 (Molecular Cancer, 2024)
Read-outs that look alike come from different tables or passages of the source.

Experiments:
[1] = Plasma pharmacokinetics in CD-1 nude mice (NCA); type: in vivo, mouse; conditions: for AUC / AUC(0-inf) / AUC(0-t) / CL/F / Cmax / Tmax / half-life / k el / Vd/F: CD-1 nude, mouse; for AUC: plasma, 25 mg/kg, read-out: total plasma AUC; for AUC(0-inf) / AUC(0-t) / CL/F / Cmax / Tmax / half-life / k el / Vd/F / Clast / Tlast: Plasma, NCA estimate; for Vd/F: read-out: Vz/F
Method: (§1) Fig. 2 TFG-MET-driven mouse model and pharmacokinetic profiles of MET inhibitors. a Schematic illustrating the method and utilized vectors to induce CRISPR/Cas9-mediated Trp53 deletion and TFG-MET overexpression following in utero electroporations. b H&E staining and Immunohistochemical analysis of a tumor generated by in utero electroporation, visualized by the HA-tag of TFG-MET. […] Three mice were analyzed per compound and time point. Error bars indicate the standard deviation. Dashed rectangles indicate time windows of radiation in the following preclinical allograft study
(§2) See Methods – Pharmacokinetics section for a description of abbreviations.

[2] = Brain pharmacokinetics in CD-1 nude mice (NCA); type: in vivo, mouse; conditions: for maximal concentration of unbound drug in the brain: estimated with Fu,b; for concentration reached in brain tissues: total drug
Method: as §1, §2

TRIM24-MET-r cells = test: 3-day dose-response assay, TRIM24-MET-r cells; type: cell-based; conditions: Homo sapiens
[3] = test system: murine TFG-MET tumor cells; test: cells; conditions: Mus musculus
Source text: To calculate unbound EC50 and EC90 values, total values were multiplied with unbound drug fractions in culture media (Table 1).

[4] = CD-1 nude, mouse, 25 mg/kg, Brain, NCA estimate
[5] = CD-1 nude, mouse, Brain, NCA estimate
[6] = CD-1 nude, mouse, Brain, NCA estimate, read-out: Kp,last

## CNC(=O)c1ccc(-c2cnc3ncc(Cc4ccc5ncccc5c4)n3n2)cc1F [Capmatinib]
[1]; CD1 nude mice
  plasma concentration at 16 hours post-dose: below the detection limit
[1]
  AUC: 16400 ng·h/mL
  AUC(0-inf): 16400 ng·h/mL
  AUC(0-t): 14900 ng·h/mL
  CL/F: 25.3 mL/min/kg
  Cmax: 6200 ng/mL
  Tmax: 0.5 h
  half-life: 2.27 h
  k el: 8.47e-05 s⁻¹
  Vd/F: 4.99 L/kg
  Clast: 540 ng/mL
  Tlast: 8 h
[2]; Brain, NCA estimate
  Clast: 42.4 ng/mL
  Tlast: 8 h
[2]; CD1 nude mice
  brain concentration at 16 hours post-dose: below the detection limit
  maximal concentration of unbound drug in the brain: ~ 103 nM
  concentration reached in brain tissues: > 1000 nM
[2]; [4]
  AUC(0-inf): 1260 ng·h/mL
  CL/F: 330 mL/min/kg
  half-life: 2.34 h
  k el: 8.22e-05 s⁻¹
[2]; CD-1 nude, mouse, 25 mg/kg, Brain, NCA estimate, read-out: Kp,inf
  Kp: 0.0768
[2]; CD-1 nude, mouse, 25 mg/kg, Brain, NCA estimate, read-out: Vz/F
  Vd/F: 67 L/kg
[2]; [5]
  AUC(0-t): 1140 ng·h/mL
  Cmax: 486 ng/mL
  Tmax: 0.5 h
[2]; [6]
  Kp: 0.0765
[2]; mouse, in vivo
  time after administration with higher effective exposure in the murine brain than crizotinib: up to 8 hours
TRIM24-MET-r cells; 72 h, TRIM24-MET-r, 3-day dose response, read-out: EC90 Total
  EC90: 199 nM
TRIM24-MET-r cells; TRIM24-MET-r, total value multiplied with unbound fraction in culture media, read-out: EC90 Unbound
  EC90: 141 nM
[3]; read-out: EC90 (nM) Total
  EC90: 29.9 nM
[3]; read-out: EC90 (nM) Unbound*
  EC90: 21.1 nM

## C[C@@H](Oc1cc(-c2cnn(C3CCNCC3)c2)cnc1N)c1c(Cl)ccc(F)c1Cl [Crizotinib]
[1]; CD1 nude mice, post dose, brain and plasma not distinguished
  time of reaching Cmax: 4 h
[1]
  AUC: 64700 ng·h/mL
  AUC(0-inf): 64700 ng·h/mL
  AUC(0-t): 42400 ng·h/mL
  CL/F: 25.8 mL/min/kg
  Cmax: 5040 ng/mL
  Tmax: 1 h
  half-life: 10.3 h
  k el: 1.86e-05 s⁻¹
  Vd/F: 23 L/kg
  Clast: 1670 ng/mL
  Tlast: 16 h
[2]; Brain, NCA estimate
  Clast: 453 ng/mL
  Tlast: 16 h
[2]; CD1 nude mice
  maximal concentration of unbound drug in the brain: ~ 11 nM
  concentration reached in brain tissues: > 1000 nM
[2]; [5]
  AUC(0-t): 6570 ng·h/mL
  Cmax: 453 ng/mL
  Tmax: 4 h
[2]; [6]
  Kp: 0.155
TRIM24-MET-r cells; 72 h, read-out: EC50 Total
  EC50: 151 nM
TRIM24-MET-r cells; 72 h, read-out: EC90 Total
  EC90: 5670 nM
TRIM24-MET-r cells; read-out: EC50 Unbound
  EC50: 93 nM
TRIM24-MET-r cells; read-out: EC90 Unbound
  EC90: 3500 nM
[3]; read-out: EC50 (nM) Total
  EC50: 124 nM
[3]; read-out: EC50 (nM) Unbound*
  EC50: 76.2 nM
[3]; read-out: EC90 (nM) Total
  EC90: 612 nM
[3]; read-out: EC90 (nM) Unbound*
  EC90: 378 nM
[3]; read-out: in vitro IC50
  IC50: 124 nM
